Data taken from US20100004174A1, “USE OF THYMOSIN ALPHA 1 FOR THE PREPARATION OF A MEDICAMENT FOR THE PREVENTION AND TREATMENT OF AUTOIMMUNE DISEASES” (SIGMA-TAU INDUSTRIE FARMACEUTICHE, priority 2006, published 2010).
No end group written: not given here.

Assays:
[1] = system: EAE (experimental autoimmune encephalitis); assay: EAE model induced with MOG35-55 peptide in mice, clinical score and spinal cord histology; assay type: in vivo, C57BL6 mice
Experimental: To this end, an EAE model was used envisaging the induction of disease by administering a peptide deriving from myelin in susceptible animals. The anima were treated with thymosin alpha 1, whose efficiency was evaluated according to clinical and histological parameters.
EAE is induced in C57BL6 mice by injecting 100 microlitres of emulsion consisting of 100 microgrammes of MOG35-55 (a peptide fragment of a myelinic glycoprotein) in complete Freund adjuvant (CFA, 4 microgrammes/ml) at the base of the tail. EAE induction is favoured by the intraperitoneal administration of the pertoxic toxin at a dosage of 200 ng/mouse the day of immunisation and three days later. The treatment with thymosin alpha 1 (200 ng/Kg) is carried out via intraperitoneal injection according to two experimental designs. In the first case, thymosin is administered starting from the day of MOG administration and for three consecutive days thereafter (Tα1+MOG). In the second case, thymosin is administered starting from the tenth day after MOG administration and for three consecutive days thereafter (MOG+Tα1).
The mice were clinically evaluated daily according to the following parameters: 0, normal; 1, flacid tail or weakness of hind legs; 2, flacid tail associated with weakness of hind legs; 3, partial paralysis of hind legs; 4, total paralysis of hind legs; 5, moribund state. […]

TNBS colitis = assay: TNBS-induced colitis model of IBD (DAS, MAS, MPO); assay type: in vivo, mice
Experimental: To this end, an IBD model was used envisaging the induction of the disease by intracolonic administration of a haptenised derivative of trinitrobenzene sulfonic acid (TNBS). The animals were treated with thymosin alpha 1, whose efficacy was evaluated according to clinical, histological and immunological parameters.
The application of hapten TNBS in the colon causes acute and chronic colitis in the rodents (Fiorucci S, Antonelli E, Distrutti E, Del Soldato P, Flower R J, Clark M J, Morelli A, Perretti M, Ignarro L J. NCX-1015, a nitric-oxide derivative of prednisolone, enhances regulatory T cells in the lamina propria and protects against 2,4,6-trinitrobenzene sulfonic acid-induced colitis in mice. Proc Natl Acad Sci U S A. 2002, 99:15770-5).
The animals were monitored daily for any onset of diarrhea, loss of body weight, blood in the faeces and to check their survival (correlated with the degree of activity of the disease, DAS). At the end of the experiment, the surviving mice were sacrificed, their colon dissected and the microscopic damage was evaluated (called mucosal activity score—MAS). The tissue segments were then used in order to measure the Myeloperoxidase (MPO) activity (an inflammation index).
The sectioned colons were examined under a microscope (×5) and classified according to their microscopic lesions on a scale from 0 to 10 based on criteria reflecting the inflammation, such as hyperemia, bowel thickening, and extension of ulcers.
MPO assays. Neutrophil infiltration in the colon was monitored by measuring MPO activity by means of a spectrophotometric assay with trimethylbenzidine (TMB) as a substrate according to a previously published method (Fiorucci S, Antonelli E, Distrutti E, Del Soldato P, Flower R J, Clark M J, Morelli A, Perretti M, Ignarro L J. NCX-1015, a nitric-oxide derivative of prednisolone, enhances regulatory T cells in the lamina propria and protects against 2,4,6-trinitrobenzene sulfonic acid-induced colitis in mice. Proc Natl Acad Sci U S A. 2002, 99:15770-5). The activity is expressed in U per mg of protein.
(§1) Treatment with thymosin alpha 1. Tα1 (purchased from Sigma, St. Louis, Mo., USA; product no. T3410; molecular formula C129H215N33O55) and the scrambled peptide were provided in the form of sterile dried powders. The powders were reconstituted in sterile water (endotoxin levels were <0.03 pg/ml, by standard Limulus lysate assay). Thymosin alpha 1 was administered at a dosage of 200 microgrammi/kg by intraperitoneal injection for 6 consecutive days starting from the day of TNBS colitis induction.
(§2) All the inflammatory and cytokine assessments were carried out the day after the end of treatment with thymosin alpha 1.

[2] = system: CD4+CD25+ lymphocytes isolated from the lamina propria; assay: Cytokine determination by ELISA on CD4+CD25+ lamina propria lymphocytes of mice with TNBS colitis; assay type: in vivo; settings: TNBS+Tα1 mice; cells stimulated in vitro 48 h with anti-CD3 and anti-CD28, FIG. 4
Experimental: as §1
Cytokine determination. This was carried out via specific ELISA tests (ELISA kit, R&D Systems Inc, Minneapolis, Minn.) on the supernatants of lymphocyte cell cultures of CD4^+CD^25+ phenotype isolated from the lamina propria and stimulated in vitro for 48 h with antibodies directed against CD3 and CD28 molecules expressed on the lymphocytes (PharMingen, BD, Palo Alto, Calif.).
as §2

[3] = TNBS colitis, 200 microgrammi/kg intraperitoneal for 6 consecutive days, assessed the day after end of treatment, FIG. 3

## thymosin alpha 1 (Ac-SDAAVDTSSEITTKDLKEKKEVVEEAEN; ends and bridges not checked; UniProt P06454 2-29, looked up) [thymic peptide found in nature; purchased from Sigma, product no; T3410]
[1]; MOG-immunised mice treated with thymosin alpha 1, FIG. 2
  de-myelination, histological analysis of semifine spinal chord sections coloured with osmium tetroxide: no significant sign of de-myelination
[1]; conclusion from FIG. 1 and FIG. 2
  overall effect on EAE incidence and neuropathological severity: protective effect
TNBS colitis; [3]
  DAS (degree of activity of the disease): drastic reduction
  MAS (mucosal activity score): drastic reduction
  MPO (myeloperoxidase) activity in colon: drastic reduction
TNBS colitis; experimental models of colitis, conclusion
  overall effect on the severity of IBD: protective effect
[2]
  IL-10 production: clear prevalence of IL-10 production
  inflammatory/anti-inflammatory cytokine production pattern (IFN-γ, IL-17, IL-10): significantly disrupted
